Measured values: EP1541559A1, “5-SUBSTITUTED ISOQUINOLINE DERIVATIVE” (Asahi Kasei Pharma Corporation, priority 2002, dated 2004)
Structures can show the parent of a compound that is named as a salt. Where two headings read alike, the source gives them in different places.

Key:
[1] = tested on: myosin regulatory light chain; assay: Action on amount of phosphorylated myosin regulatory light chain in the cells (Test Example 1); type: cell-based, human; settings: neutrophils of healthy volunteers, reaction with test compound at 25°C for 5 minutes, read-out: Inhibition of myosin regulatory light chain phosphorylation (IC50: µM)
How it was run: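 Neutrophil suspension (5 x 10^6/ml, HBSS) reacted 5 min at 25 °C with test compound at various concentrations. TCA-stopped, urea-extracted and run on SDS-PAGE, then immunoblotted with antibody specific for phosphorylated myosin regulatory light chain, detected by HRP/ECL and quantified by densitometry. Result given as % inhibition of phosphorylation.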

[2] = tested on: ovalbumin-immunized guinea pigs; assay: Respiratory tract constriction suppression action, ovalbumin-induced (Test Example 3); type: in vivo, Hartley guinea pigs; settings: result in words; test medicament given into hind leg vein after induction with 0.3 mg/kg ovalbumin, measured for 15 minutes
Experimental: Four-week old Hartley guinea pigs (male) were immunized by intraperitoneal administration of ovalbumin (Sigma, Grade V) in amounts of 1 mg for each animal on the day on which the experiment was started, 3 mg for each animal after 2 days, and 10 mg for each animal after 4 days. Twelve to fourteen days after the final immunization, the ovalbumin-immunized guinea pigs were anesthetized by intraperitoneal administration of about 40 mg/kg of pentobarbital (Somnopentyl), and the tracheas were taken out. Subsequently, a cannula (SP-110, Natsume) was inserted into each trachea, and one end of the cannula was connected to an artificial respirator (Model-b83, Harvard). The aeration conditions were set at 6 ml per kilogram and 60 times per 1 minute. Further, a cannula for medicament administration (JMS wing needle 23G 3/4) was inserted into a hind leg vein. Myoblock (Organon Technica) was administered in an amount of 0.5 mg/kg from the cannula inserted into the hind leg vein to stop the spontaneous breathing, and after 2 or 3 minutes, 0.3 mg/kg of ovalbumin was administered to induce constriction of respiratory tract. The increase of airway resistance value 2 minutes after the induction (measurement apparatuses: pressure transducer TR-603T, respiratory amplifier AR-601G, and recorder RTA-3100, Nihon Kohden Corp.) was confirmed to be above 80 cm H2O or higher, and then, a solution of a test medicament was administered from the cannula inserted into the hind leg vein, and the airway resistance value was continuously measured for 15 minutes after the administration to determine the effect.

Japanese white rabbit = assay: Intraocular pressure reducing action (Test Example 4); type: in vivo; settings: Oryctolagus cuniculus, topical; 50 µl of test compound (1% aqueous solution) dropped to the left eye, after 2 hours; read-out: Intraocular pressure reducing action (reduction ratio) (%)
Experimental: A Japanese white rabbit having a body weight of about 2 kg was placed in a positioner and naturalized for one week before the experiment. An ophthalmologic local […] (Benoxil) was administered to the left eye, and then intraocular pressure was measured by using a tonometer (Classic 30, Solan). The initial value of the intraocular pressure was measured, then 50 μl of a test compound (1% aqueous solution) was dropped to the left eye, and after 2 hours, the intraocular pressure was measured. The intraocular pressure reducing action of the test compounds is shown in Table 7 mentioned below as ratios (%) of reduction of intraocular pressure based on the initial value of the intraocular pressure.

Neutrophils = assay: Neutrophil migration inhibitory action, Boyden Chamber, FMLP (Test Example 5); type: cell-based, human; settings: Homo sapiens, Neutrophil, 0.5 h, FMLP (1 µM), migration at 37°C for 30 minutes; read-out: Neutrophil migration inhibition IC50
How it was run: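 Neutrophils from healthy donors' peripheral blood (8 x 10^6/ml) were preincubated 5 min at room temperature with compound. Migrated cells were stained and absorbance read at 595 nm; inhibition (%) was calculated against compound-free wells.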

[3] = tested on: myosin light chain phosphorylation enzyme (MLCK); assay: Action on myosin light chain phosphorylation enzyme (MLCK) activity, ELISA (second Test Example 7); type: biochemical, chicken; settings: result in words
Experimental: A myosin light chain phosphorylation enzyme (MLCK) was purified from chicken gizzard smooth muscle by a conventional method (Yoshida, M., et al., J. Biochem., 99, 1027-1036 (1986)). The myosin regulatory light chain as a substrate was purified from the chicken gizzard smooth muscle by a conventional method (Grand, R. J., et al., Biochem. J., 211, 267-272 (1983)). The MLCK activity was measured by ELISA using pLC1 described in Test Example 1 (Sakurada, K., et al., J. Biochem., 115, 18-21 (1994)). […] In a volume of 100 µ1 each of 20% aqueous phosphoric acid solution was added to each well to terminate the enzymatic reaction. Each well was washed with 25 mM Tris/HCl buffer (TTBS) containing 0.1% Tween 20, and then 100 µl each of pLC1 described in Test Example 1 was added to each well and incubated at room temperature for 90 minutes. Each well was washed with TTBS, and then 100 µl of the HRP-labeled rabbit anti-mouse IgG antibodies (Bio-Rad) were added to each well and incubated at room temperature for 90 minutes. […] 50 µl of 4 N sulfuric acid was added to each well to terminate the reaction, and then absorbance was measured by using an immunoplate reader (Bio-Rad).

In the case of c1cc(NC2CCCNC2)c2ccncc2c1 (racemic) [Example 29, 3-N-(5-Isoquinolyl)aminopiperidine hydrochloride], the IC50 ([1]; Homo sapiens, Neutrophil, 5 min) is reported as at most 40 µM, the IC50 ([1]; hydrochloride) is reported as at most 20 µM and the “constriction of respiratory tract (airway resistance value)” value [2] is reported as “significantly improved the constriction of respiratory tract”. The inhibition in vivo at 1 % (Japanese white rabbit) was 18.8%, the IC50 (Neutrophils) was at most 40 µM and the “inhibition of MLCK” value [3] was “did not inhibit MLCK”.
